Laboratory results taken from patent US8796307B2, “Beta2-adrenoreceptor agonists” (Novartis AG, priority 1999, dated 2014).
Structures can show the parent of a compound that is named as a salt. Where two headings read alike, the source gives them in different places.

Experiments:
β1-adrenoreceptor = β1-adrenoreceptor (Homo sapiens, UniProt P08588); experiment: cAMP determination in cells expressing β1-adrenoreceptor; type: cell-based
Excerpt: (§1) Accordingly the invention also provides a compound of formula I in free, salt or solvate form for use as a pharmaceutical. […] The β2 agonist activity, onset of action and duration of action of the agents of the invention may be tested using the guinea pig tracheal stip in vitro assay according to the procedure of R. A. Coleman and A. T. Nials, J. Pharmacol. Methods (1989), 21(1), 71-86. The binding potency and selectivity for the β2-adrenoreceptor relative to the β1-adrenoreceptor can be measured by a classical filtration binding assay according to the procedure of Current Protocols in Pharmacology (S. J. Enna (editor-in-chief) et al, John Wiley & Son, Inc, 1998), or by cAMP determination in cells expressing β2- or β1-adrenoceptor, according to the procedure of B. January et al, British J. Pharmacol. 123: 701-711 (1998).

β2-adrenoreceptor = β2-adrenoreceptor (Homo sapiens, UniProt P07550); experiment: cAMP determination in cells expressing β2-adrenoreceptor; type: cell-based; settings: read-out: EC50 (β2), binding potency measured by cAMP determination
Sequence of β2-adrenoreceptor (P07550 whole entry, species assumed): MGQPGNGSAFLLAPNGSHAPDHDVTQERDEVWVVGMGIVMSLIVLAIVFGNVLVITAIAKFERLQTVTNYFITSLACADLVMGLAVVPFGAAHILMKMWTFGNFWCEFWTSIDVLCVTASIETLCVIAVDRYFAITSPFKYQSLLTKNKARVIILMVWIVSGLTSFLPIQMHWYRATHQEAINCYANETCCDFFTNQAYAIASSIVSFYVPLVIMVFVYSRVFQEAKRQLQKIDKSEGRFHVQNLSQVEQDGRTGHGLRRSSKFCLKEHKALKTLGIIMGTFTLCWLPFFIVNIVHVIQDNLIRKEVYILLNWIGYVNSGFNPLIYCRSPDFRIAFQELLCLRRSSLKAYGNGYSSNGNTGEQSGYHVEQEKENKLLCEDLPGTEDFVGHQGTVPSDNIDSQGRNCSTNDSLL
Excerpt: as §1

[1] = system: guinea pig tracheal strip; experiment: guinea pig tracheal strip in vitro assay
Excerpt: as §1

[2] = cells expressing β1-adrenoreceptor, read-out: EC50 (β1), binding potency measured by cAMP determination

Sequence of β1-adrenoreceptor (P08588 whole entry, species assumed): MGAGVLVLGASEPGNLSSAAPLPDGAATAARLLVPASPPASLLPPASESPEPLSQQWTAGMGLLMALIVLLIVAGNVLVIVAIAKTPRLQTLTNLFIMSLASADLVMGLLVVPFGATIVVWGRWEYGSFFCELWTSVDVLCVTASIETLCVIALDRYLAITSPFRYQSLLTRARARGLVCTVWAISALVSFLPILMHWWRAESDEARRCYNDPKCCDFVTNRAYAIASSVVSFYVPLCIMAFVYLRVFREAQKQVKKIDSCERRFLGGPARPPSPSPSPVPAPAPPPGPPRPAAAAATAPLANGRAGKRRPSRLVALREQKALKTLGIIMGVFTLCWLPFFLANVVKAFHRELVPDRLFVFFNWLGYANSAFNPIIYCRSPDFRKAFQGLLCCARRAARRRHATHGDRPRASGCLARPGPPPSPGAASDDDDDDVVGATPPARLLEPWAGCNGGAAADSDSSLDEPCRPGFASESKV

## COc1ccc(OC)c2c1CC(NC[C@H](O)c1ccc(O)c3[nH]c(=O)ccc13)C2 [Example 1, (R)-8-hydroxy-5-[2-(4,7-Dimethoxy-indan-2-ylamino)-1-hydroxy-ethyl]-1H-quinolin-2-one hydrochloride]
β1-adrenoreceptor; [2]
  EC50: 9.52 nM
β2-adrenoreceptor
  EC50: 0.92 nM

## CCc1cc2c(cc1CC)CC(NCC(O)c1ccc(O)c3[nH]c(=O)ccc13)C2 (stereo not shown) [Example 2, 8-hydroxy-5-[2-(5,6-diethyl-indan-2-ylamino)-1-hydroxy-ethyl]-1H-quinolin-2-one]
[1]; at 71 nM concentration
  T(50%), time for inhibition of contraction to decay to 50% of its maximum value: > 400 min
β1-adrenoreceptor
  EC50: 1.25 nM
β2-adrenoreceptor
  EC50: 0.23 nM

## CCc1ccc(CC)c2c1CC(NC[C@H](O)c1ccc(O)c3[nH]c(=O)ccc13)C2 [Example 4]
[1]; at 100 nM
  T(50%), time for inhibition of contraction to decay to 50% of its maximum value: 82 min
β1-adrenoreceptor; [2]
  EC50: 14.5 nM
β2-adrenoreceptor
  EC50: 6.07 nM

## O=c1ccc2c([C@@H](O)CNC3Cc4cc5c(cc4C3)CCCC5)ccc(O)c2[nH]1 [Example 5]
[1]; at 100 nM
  T(50%), time for inhibition of contraction to decay to 50% of its maximum value: 444 min
β1-adrenoreceptor; [2]
  EC50: 6.1 nM
β2-adrenoreceptor
  EC50: 0.79 nM

## O=c1ccc2c([C@@H](O)CNC3Cc4cc5c(cc4C3)OCCO5)ccc(O)c2[nH]1 [Example 6]
β1-adrenoreceptor; [2]
  EC50: 3.6 nM
β2-adrenoreceptor
  EC50: 0.3 nM

## CCCc1cc2c(cc1CCC)CC(NC[C@H](O)c1ccc(O)c3[nH]c(=O)ccc13)C2 [Example 8]
β1-adrenoreceptor; [2]
  EC50: 8.46 nM
β2-adrenoreceptor
  EC50: 0.57 nM

## CC1(NC[C@H](O)c2ccc(O)c3[nH]c(=O)ccc23)Cc2ccccc2C1 [Example 27, 8-Hydroxy-5-[(R)-1-hydroxy-2-(2-methyl-indan-2-ylamino)-ethyl]-1H-quinolin-2-one]
[1]; at 1.0 nM
  T(50%), time for inhibition of contraction to decay to 50% of its maximum value: 222 min
β1-adrenoreceptor; [2]
  EC50: 0.5 nM
β2-adrenoreceptor
  EC50: 0.012 nM

## CC1(NC[C@H](O)c2ccc(O)c3[nH]c(=O)ccc23)Cc2cc3c(cc2C1)CCCC3 [Example 29, 8-Hydroxy-5-[(R)-1-hydroxy-2-(2-methyl-2,3,5,6,7,8-hexahydro-1H-cyclopenta[b]naphthalen-2-ylamino)-ethyl]-1H-quinolin-2-one]
[1]; at 10 nM
  T(50%), time for inhibition of contraction to decay to 50% of its maximum value: 279 min
